Source: PubChem BioAssay (NCI)
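Grown in 96-well plates, cells were treated for 48 hours with each compound at five concentrations. Insufficient inhibition: endpoint recorded as highest concentration tested. The concentration for full growth arrest is given as TGI.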

Columns and labels:
Experiment in all cases: NCI-60 cell line screen, 48 h
[1] = system: DU-145 prostate
[2] = system: EKVX NSCLC
[3] = system: HL-60(TB) leukemia
[4] = system: HS 578T breast
[5] = system: LOX IMVI melanoma
[6] = system: M14 melanoma
[7] = system: MDA-N
[8] = system: MOLT-4 leukemia
[9] = system: NCI-H522 lung
[10] = system: NCI/ADR-RES ovarian
[11] = system: SF-268 CNS
[12] = system: SF-295 CNS
[13] = system: SN12C renal
[14] = system: SNB-75 CNS
[15] = system: TK-10 renal
[16] = system: UACC-257 melanoma
[17] = system: UACC-62 melanoma
[18] = system: SK-MEL-5 melanoma
[19] = system: A498 renal
[20] = system: T-47D breast

Measured: TGI

CCOC(=O)N1CCN(Cc2cc(=O)n3cc(C)ccc3n2)CC1
> 100 µM: [1] | [2] | [3] | [4] | [5] | [6] | [7] | [8] | [9] | [10] | [11] | [12] | [13] | [14] | [15] | [16] | [17]

COc1cc(C2C(Cl)C(=O)N2n2cnc3ccccc3c2=O)cc(OC)c1OC (centres undefined)
> 100 µM: [2] | [3] | [5] | [6] | [8] | [9] | [11] | [12] | [18] | [13] | [14] | [15] | [16] | [17]

CCOc1ccc(N2C(=O)C3c4[nH]c5ccccc5c4C4CCC(C(C)(C)C)CC4C3C2=O)cc1 (centres undefined)
> 100 µM: [19] | [2] | [3] | [6] | [8] | [9] | [11] | [12] | [18] | [13] | [14] | [16] | [17]

CC(=O)Oc1ccc(N2C(=O)C3c4[nH]c5ccccc5c4C4CCC(C(C)(C)C)CC4C3C2=O)cc1 (centres undefined)
9.41 µM: [2]
4.17 µM: [13]
14.8 µM: [12]
24 µM: [16]
8.19 µM: [18]
5.47 µM: [3]
12.2 µM: [1]
13.2 µM: [6]
14.7 µM: [19] | [10]
9.93 µM: [9]
14.3 µM: [5]
10.7 µM: [15]
8.82 µM: [4]
20.7 µM: [17]
14.1 µM: [7]
94.2 µM: [8]
11 µM: [11]

COCCOCN(C(=O)C1=CCC2(CC1)OCCO2)c1ccccc1I
> 50 µM: [19] | [1] | [2] | [5] | [6] | [7] | [8] | [10] | [12] | [18] | [13] | [14] | [20] | [15] | [16] | [17]

O=C1CC2CC=C[C@H]3c4cc5c(cc4C(=O)N1C23)OCO5 (some centres undefined)
> 50 µM: [2] | [3] | [5] | [6] | [8] | [9] | [11] | [12] | [13] | [14] | [15] | [16] | [17]

O=C1C=C(N2CCCC2)C=C(N2CCCC2)C1
> 100 µM: [2] | [3] | [5] | [6] | [8] | [9] | [11] | [12] | [18] | [14] | [15] | [16] | [17]
